Laboratory results taken from patent US8518976B2, “Heteroaryl-substituted amides comprising a saturated linker group, and their use as pharmaceuticals” (Sanofi, priority 2005, dated 2013).

Tested on: eNOS promoter
Assay: Activation of eNOS transcription (eNOS promoter-luciferase reporter gene assay)
Format: cell-based
Conditions: human endothelial cell line stably transfected with eNOS promoter-luciferase construct, 18 h incubation, determined graphically; read-out: EC50 values of transcription induction ratios (TIR)
Protocol: Activation of eNOS transcription was measured as described in detail by L^1 et al., “Activation of protein kinase C alpha and/or epsilon enhances transcription of the human endothelial nitric oxide synthase gene”, Mol. Pharmacol. 53 (1998) 630. Briefly, a 3.5 kB long fragment 5′ of the starting codon of the eNOS gene was cloned, sequenced and cloned in firefly luciferase expression plasmids to monitor activation of the eNOS promoter by reporter gene activity. A human endothelial cell line stable transfected and expressing this promoter-reporter construct was used for compound testing. Cells were incubated for 18 h with the compounds.
All compounds were dissolved in sterile dimethyl sulfoxide (DMSO). A final concentration of 0.5% DMSO in complete medium was allowed. Induction of reporter gene expression in these cells was measured using a standard luciferase assay system (Promega, Cat. No. E150) according to the manufacturer's instructions. Luciferase induction in cells incubated with compounds were compared to those incubated with solvent alone. The ratio of both activities (transcription induction ratio, TIR) was plotted as a function of compound concentration. Typically, TIR values started at low concentrations at a ratio of 1, indicating no compound effect, and extended up to a maximum TIR value TIR(max) which indicates the increase of the eNOS transcription. EC50 values of transcription induction ratios as a function of compound concentration were determined graphically.

| Compound | EC50 [µM] |
| --- | --- |
| O=C1CCC(=O)N1CCNc1nc(-c2ccc(F)cc2)cs1 [Example 34, 1-(2-(4-(4-Fluorophenyl)thiazol-2-ylamino)ethyl)pyrrolidine-2,5-dione] | 0.5 to 5 |
| N#Cc1cccc(-c2ccc(OCCN3C(=O)CCC3=O)cn2)c1 [Example 64, 1-(2-(6-(3-cyanophenyl)pyridin-3-yloxy)ethyl)pyrrolidine-2,5-dione] | 0.5 to 5 |
| O=C1CSCCN1CCCc1ccc(-c2ccccc2Cl)nc1 [Example 7, 4-(3-(6-(2-Chlorophenyl)pyridin-3-yl)propyl)thiomorpholin-3-one] | 0.5 to 5 |
| O=C1CCC(=O)N1CCOc1ccc(-c2cccc3ccccc23)nc1 [Example 66, 1-(2-(6-(naphthalen-1-yl)pyridin-3-yloxy)ethyl)pyrrolidine-2,5-dione] | 0.5 to 5 |
| O=C(O)CCCC(=O)NCCCc1ccc(-c2ccc(F)cc2)nc1 [Example 17, 4-(3-(6-(4-Fluorophenyl)pyridin-3-yl)propylcarbamoyl)butyric acid] | 0.5 to 5 |

Now from value to compound:

| EC50 [µM] | Compound |
| --- | --- |
| < 0.5 | O=C1CSC=CN1CCCc1ccc(-c2ccc(F)cc2)nc1 [Example 25, 4-(3-(6-(4-Fluorophenyl)pyridin-3-yl)propyl)-4H-[1,4]thiazin-3-one] |
| < 0.5 | Cc1cc(-c2ccc(OCCN3C(=O)CCC3=O)cn2)ccc1F [Example 86, 1-(2-(6-(4-fluoro-3-methylphenyl)pyridin-3-yloxy)ethyl)pyrrolidine-2,5-dione] |
| < 0.5 | Cc1csc(-c2ccc(OCCN3C(=O)CCC3=O)cn2)c1 [Example 52, 1-(2-(6-(4-methylthiophen-2-yl)pyridin-3-yloxy)ethyl)pyrrolidine-2,5-dione] |
| < 0.5 | O=C1CCCCCN1CCCc1ccc(-c2ccc(F)cc2)nc1 [Example 18, 1-(3-(6-(4-Fluorophenyl)pyridin-3-yl)propyl)azepan-2-one] |
| < 0.5 | O=C1CCC(=O)N1CCOc1ccc(-c2ccc(F)c(Cl)c2)nc1 [Example 50, 1-(2-(6-(3-Chloro-4-fluorophenyl)pyridin-3-yloxy)ethyl)pyrrolidine-2,5-dione] |
